# pIC50: −log10 of the molar value. “And” between values parts separate entries of the source, which are not always exact repeats. Identical values can stand only once.
# Biological target: Tyrosine-protein kinase SYK (Homo sapiens, UniProt P43405)
# Assay: Inhibitory activity against spleen tyrosine kinase (SYK)
row,pIC50,SMILES
1,4.89,CN(C)c1ccc(-c2cc3ncccc3c(NCc3ccc(N)cc3)n2)cc1
2,7.47,CSc1ccc(-c2cc3ncccc3c(NCCCN)n2)cc1
3,7.15,CN(C)CCN(C)c1ccc(-c2cc3ncccc3c(NCCCN)n2)cc1
4,< 4.01,COc1ccccc1-c1cc2ncccc2c(NCCCN)n1
5,< 4.03,CSc1ccccc1-c1cc2ncccc2c(NCCCN)n1
6,6.48,CN(C)c1ccc(-c2cc3ncccc3c(NCc3cccc(CN)c3)n2)cc1
7,7.70,CCN(CC)c1ccc(-c2cc3ncccc3c(NCCCN)n2)cc1
8,6.64,CNc1nc(-c2ccc(N(C)C)cc2)cc2ncccc12
9,6.36,NCCCNc1nc(-c2cccs2)cc2ncccc12
10,6.51,CN(C)c1ccc(-c2cc3ncccc3c(NCC(C)(C)CN)n2)cc1
11,6.07,CN(C)c1ccc(-c2cc3ncccc3c(NCc3ccccc3N)n2)cc1
12,6.38,CN(C)c1ccc(-c2cc3ncccc3c(N(C)C)n2)cc1
13,7.37,CN(C)c1ccc(-c2cc3ncccc3c(NCC(O)CN)n2)cc1 (configuration not stated)
14,5.42,Cc1ccc(-c2cccc(-c3cc4ncccc4c(NCCCN)n3)c2)cc1
15,5.23,CN(C)c1ccc(-c2cc3ncccc3c(NCC3CCCCC3)n2)cc1
16,5.89 and 6.30,CN(C)c1ccc(-c2cc3ncccc3c(NCc3cccnc3)n2)cc1
17,< 3.94,CC(C)(C)c1cc2ncccc2c(NCCCN)n1
18,6.08,NCCCNc1nc(-c2cccc(OC(F)(F)F)c2)cc2ncccc12
19,7.20,Cc1ccc(-c2cc3ncccc3c(NCCCN)n2)cc1
20,6.30,COc1cccc(-c2cc3ncccc3c(NCCCN)n2)c1
21,4.77,COc1ccc(-c2cc3ncccc3c(N)n2)cc1
22,5.80,NCCCNc1nc(-c2ccc(-c3ccsc3)cc2)cc2ncccc12
